Test results taken from patent US10875855B2 (priority 2011, dated 2020).
Where two headings read alike, the source gives them in different places.

Assays:
[1] = test system: influenza A virus (A/PR/8/34); test: MDCK cytopathic effect (CPE) cell protection assay, ATP detection; assay type: cell-based
[2] = test system: influenza A virus (A/PR/8/34); test: microbe, parasite or virus in culture; assay type: cell-based
[3] = Influenza A virus, PR/8, MDCK, 72 h, Table 1, MDCK cells, A/PR/8/34, 72 hours, 50% cell protection, mean all, class symbol, read-out: MDCK IC50
[4] = Influenza A virus, PR/8, Table 1, mean all, class symbol, read-out: bDNA EC99
[5] = Influenza A virus, PR/8, Table 1, viral RNA 50% of control wells, mean all, class symbol, read-out: bDNA EC50
[6] = Table 1, MDCK cells, A/PR/8/34, 72 hours, 50% cell protection, mean all, class symbol, read-out: MDCK IC50
[7] = Table 1, viral RNA 50% of control wells, mean all, class symbol, read-out: bDNA EC50
[8] = Table 1, mean all, class symbol

Row | Structure (SMILES) | IC50 [1, 3] [nM] | EC99 [2, 4] [µM] | EC50 [2, 5] [nM] | also measured
1 | CC(C)(C)N(CC(=O)O)Nc1nc(-c2c[nH]c3ncc(C(F)(F)F)cc23)ncc1F [Compound 54, 2-(1-(tert-butyl)-2-(5-fluoro-2-(5-(trifluoromethyl)-1H-pyrrolo[2,3-b]pyridin-3-yl)pyrimidin-4-yl)hydrazinyl)acetic acid] | < 300 | 0.3 to 3.3 | < 300 | 
2 | CC(C)(C)N(CC(=O)O)Nc1nc(-c2c[nH]c3ncc(Cl)cc23)ncc1F [Compound 56, 2-(1-(tert-butyl)-2-(2-(5-chloro-1H-pyrrolo[2,3-b]pyridin-3-yl)-5-fluoropyrimidin-4-yl)hydrazinyl)acetic acid] | < 300 | < 0.3 | < 300 | 
3 | CC(C)(C)[C@@H](CS(=O)(=O)NCC(F)F)Nc1nc(-c2c[nH]c3ncc(F)cc23)ncc1F [Compound 57, (S)—N-(2,2-difluoroethyl)-2-(5-fluoro-2-(5-fluoro-H-pyrrolo[2,3-b]pyridin-3-yl)pyrimidin-4-ylamino)-3,3-dimethylbutane-1-sulfonamide] | < 300 | < 0.3 | < 300 | 
4 | CC(C)(C)[C@@H](CS(=O)(=O)NCC(F)(F)F)Nc1nc(-c2c[nH]c3ncc(F)cc23)ncc1F [Compound 58, (S)-2-(5-fluoro-2-(5-fluoro-1H-pyrrolo[2,3-b]pyridin-3-yl)pyrimidin-4-ylamino)-3,3-dimethyl-N-(2,2,2-trifluoroethyl)butane-1-sulfonamide] | < 300 | < 0.3 | < 300 | 
5 | CC(C)(C)[C@@H](/C=C/C(=O)O)Nc1nc(-c2c[nH]c3ncc(F)cc23)ncc1F [Compound 59, (R,E)-4-((5-fluoro-2-(5-fluoro-1H-pyrrolo[2,3-b]pyridin-3-yl)pyrimidin-4-yl)amino)-5,5-dimethylhex-2-enoic acid] | < 300 | 0.3 to 3.3 | < 300 | 
6 | CC(C)(C)[C@@H](CS(=O)(=O)CC(=O)O)Nc1nc(-c2c[nH]c3ncc(F)cc23)ncc1F [Compound 60, (S)-2-(2-(5-fluoro-2-(5-fluoro-1H-pyrrolo[2,3-b]pyridin-3-yl)pyrimidin-4-ylamino)-3,3-dimethylbutylsulfonyl)ethanoic acid] | < 300 | > 3.3 | 300 to 3300 | 
7 | CC(C)(C)[C@@H](CS(=O)(=O)CC(=O)O)Nc1nc(-c2c[nH]c3ncc(Cl)cc23)ncc1F [Compound 61, (S)-2-(2-(2-(5-chloro-1H-pyrrolo[2,3-b]pyridin-3-yl)-5-fluoropyrimidin-4-ylamino)-3,3-dimethylbutylsulfonyl)ethanoic acid] | < 300 | 0.3 to 3.3 | < 300 | 
8 | CC1(C(CC(=O)O)Nc2nc(-c3c[nH]c4ncc(F)cc34)ncc2F)CCC1 (stereo not shown) [Compound 63] | < 300 | < 0.3 | < 300 | 
9 | CC(C)(C)[C@@H](CC(O)C(F)(F)F)Nc1nc(-c2c[nH]c3ncc(F)cc23)ncc1F (stereo partly drawn) [Compound 66, (4R)-1,1,1-trifluoro-4-((5-fluoro-2-(5-fluoro-1H-pyrrolo[2,3-b]pyridin-3-yl)pyrimidin-4-yl)amino)-5,5-dimethylhexan-2-ol] | < 300 | 0.3 to 3.3 | < 300 | 
10 | CC(C)(C)[C@@H](CC(O)C(F)(F)F)Nc1nc(-c2c[nH]c3ncc(F)cc23)ncc1F (stereo partly drawn) [Compound 67, (4R)-1,1,1-trifluoro-4-((5-fluoro-2-(5-fluoro-1H-pyrrolo[2,3-b]pyridin-3-yl)pyrimidin-4-yl)amino)-5,5-dimethylhexan-2-ol] |  |  |  | IC50 [1, 6]: < 300 nM; EC50 [2, 7]: < 300 nM
11 | CC(C)(C)[C@@H](Cn1cc(CO)nn1)Nc1nc(-c2c[nH]c3ncc(F)cc23)ncc1F [Compound 68, (S)-(1-(2-((5-fluoro-2-(5-fluoro-1H-pyrrolo[2,3-b]pyridin-3-yl)pyrimidin-4-yl)amino)-3,3-dimethylbutyl)-1H-1,2,3-triazol-4-yl)methanol] | 300 to 3300 | 0.3 to 3.3 | < 300 | 
12 | CC(C)(C)[C@@H](CCP(=O)(O)O)Nc1nc(-c2c[nH]c3ncc(F)cc23)ncc1F [Compound 69, (R)-(3-((5-fluoro-2-(5-fluoro-1H-pyrrolo[2,3-b]pyridin-3-yl)pyrimidin-4-yl)amino)-4,4-dimethylpentyl)phosphonic acid] | 300 to 3300 | > 3.3 | 300 to 3300 | IC50 ([1]; Influenza A virus, PR/8, MDCK, exemplary data, MDCK cell protection, read-out: IC50): 2310 nM; EC50 ([2]; Influenza A virus, PR/8, exemplary data, bDNA, read-out: EC50): 800 nM; EC99 ([2]; exemplary data, bDNA): 8.4 µM
13 | CC(C)(C)[C@@H](CC(O)CO)Nc1nc(-c2c[nH]c3ncc(F)cc23)ncc1F (stereo partly drawn) [Compound 70, (4R)-4-((5-fluoro-2-(5-fluoro-1H-pyrrolo[2,3-b]pyridin-3-yl)pyrimidin-4-yl)amino)-5,5-dimethylhexane-1,2-diol] | < 300 | 0.3 to 3.3 | < 300 | 
14 | CC(C)(C)[C@@H](CC(O)CO)Nc1nc(-c2c[nH]c3ncc(F)cc23)ncc1F (stereo partly drawn) [Compound 71, (4R)-4-((5-fluoro-2-(5-fluoro-1H-pyrrolo[2,3-b]pyridin-3-yl)pyrimidin-4-yl)amino)-5,5-dimethylhexane-1,2-diol] |  |  |  | IC50 [1, 6]: < 300 nM; bDNA EC99 (uM) [2, 8]: A (EC99 (mean all)<0.3 μM); EC50 [2, 7]: < 300 nM
15 | CC(O)C[C@@H](Nc1nc(-c2c[nH]c3ncc(F)cc23)ncc1F)C(C)(C)C (stereo partly drawn) [Compound 73, (4R)-4-((5-Fluoro-2-(5-fluoro-1H-pyrrolo[2,3-b]pyridin-3-yl)pyrimidin-4-yl)amino)-5,5-dimethylhexan-2-ol] | > 3300 |  | 300 to 3300 | 
16 | CC1(C(CC(=O)O)Nc2nc(-c3c[nH]c4ncc(F)cc34)ncc2F)CC1 (stereo not shown) [Compound 74] | 300 to 3300 | 0.3 to 3.3 | 300 to 3300 | 
17 | CC1(C(CC(=O)O)Nc2nc(-c3c[nH]c4ncc(F)cc34)ncc2F)CCCCC1 (stereo not shown) [Compound 78, 3-(5-fluoro-2-(5-fluoro-1H-pyrrolo[2,3-b]pyridin-3-yl)pyrimidin-4-ylamino)-3-(1-methylcyclohexyl)propanoic acid] | < 300 | 0.3 to 3.3 | < 300 | 
18 | CCOC(=O)CC(Nc1nc(-c2c[nH]c3ncc(Cl)cc23)ncc1F)C1(C)CCCCC1 (stereo not shown) [Compound 82] | > 3300 | > 3.3 | > 3300 | 
19 | CC1([C@@H](CC(=O)O)Nc2nc(-c3c[nH]c4ncc(F)cc34)ncc2F)CCC1 [Compound 87, 3-((5-fluoro-2-(5-fluoro-1H-pyrrolo[2,3-b]pyridin-3-yl)pyrimidin-4-yl)amino)-3-(1-methylcyclobutyl)propanoic acid] | < 300 | < 0.3 | < 300 | 
20 | CC1(C(CC(=O)O)Nc2nc(-c3c[nH]c4ncc(F)cc34)ncc2F)CCC1 (stereo not shown) [Compound 88, 3-((5-fluoro-2-(5-fluoro-1H-pyrrolo[2,3-b]pyridin-3-yl)pyrimidin-4-yl)amino)-3-(1-methylcyclobutyl)propanoic acid] |  |  |  | IC50 [1, 6]: < 300 nM; bDNA EC99 (uM) [2, 8]: B (0.3 μM≤EC99 (mean all)≤3.3 μM); EC50 [2, 7]: < 300 nM
21 | CC(C)(C)[C@@H](CC(=O)O)Nc1nc(-c2c[nH]c3ncc(C#N)cc23)ncc1F [Compound 89, (R)-3-((2-(5-cyano-1H-pyrrolo[2,3-b]pyridin-3-yl)-5-fluoropyrimidin-4-yl)amino)-4,4-dimethylpentanoic acid] | < 300 | 0.3 to 3.3 | < 300 | 
